Structures are written as SMILES. Counter-ions that a name gives are not always drawn. Like-named read-outs stand apart in the source and are kept apart here.

Data on 7 compounds can be found in patent US7132443B2, “Fluoropyrrolidines as dipeptidyl peptidase inhibitors” (SmithKlineBeecham Corporation, priority 2001, dated 2006).

A short description of series [1]: Stability studies in Phosphate Buffered Saline by HPLC (cyclization/degradation half-life). Particulars: PBS; for half-life: Phosphate Buffered Saline.
Description: (§1) An initial time point HPLC chromatogram is obtained followed by successive HPLC chromatograms at time points of 24, 48, 72, etc hours.
(§2) The area under the drug substance peak is compared to the initial area for each chromatogram and plotted as percent remaining from initial time (t0).
Series [2] has as its target T1, DPP-IV activity in serum (Rattus norvegicus, UniProt P14740).
T1 construct: from tissue; host or cells: serum/plasma of male CD rats dosed orally
Description: DPP-IV activity in serum of rats 6 hrs after oral dosing. The series is classed as in vivo. Particulars: for inhibition at 1 mg/kg: rat, read-out: Percent DPP-IV inhibition At 6 hrs In Rats; for duration of action: rats, 6 hrs after 1 mg/kg oral. How it is done:
Age and weight matched male CD rats were housed individually at 72° F. and 50% relative humidity with a 12 h light/dark cycle. Animals were dosed by oral gavage with vehicle (10 mM acetic acid) or 1 mg/kg test compound in vehicle. After 6 hrs administration of compound, the rats were anesthetized with isofluorane for cardiac blood collection. DPP-IV activity in serum was measured using the fluorogenic substrate Gly-Pro-AMC (50 mM) according to the manufacturers specification (Enzyme System Products, Livermore Calif.). The substrate was mixed with 50 mM Tris, pH 7.8, in plasma (20% final v/v) and the samples were incubated for 5–20 min at 30° C. DPP-IV activity was determined by measuring fluorescence using a cytofluor spectrofluoremeter with the filters set at 360 nm excitation and 460 nm emission. Averages and standard deviations from each group (n=3) were calculated using students t-test and compared to vehicle treated rats to determine percent inhibition as shown in Table 1.

The target in the next series is T2, human DPP-IV (Homo sapiens, UniProt P27487).
T2 construct: The material was isolated from human prostasomes using the method of DeMeester et al; purchased Athens Research and Technology, Inc; host or cells: human prostasomes (natural source)
T2 sequence (P27487 whole entry): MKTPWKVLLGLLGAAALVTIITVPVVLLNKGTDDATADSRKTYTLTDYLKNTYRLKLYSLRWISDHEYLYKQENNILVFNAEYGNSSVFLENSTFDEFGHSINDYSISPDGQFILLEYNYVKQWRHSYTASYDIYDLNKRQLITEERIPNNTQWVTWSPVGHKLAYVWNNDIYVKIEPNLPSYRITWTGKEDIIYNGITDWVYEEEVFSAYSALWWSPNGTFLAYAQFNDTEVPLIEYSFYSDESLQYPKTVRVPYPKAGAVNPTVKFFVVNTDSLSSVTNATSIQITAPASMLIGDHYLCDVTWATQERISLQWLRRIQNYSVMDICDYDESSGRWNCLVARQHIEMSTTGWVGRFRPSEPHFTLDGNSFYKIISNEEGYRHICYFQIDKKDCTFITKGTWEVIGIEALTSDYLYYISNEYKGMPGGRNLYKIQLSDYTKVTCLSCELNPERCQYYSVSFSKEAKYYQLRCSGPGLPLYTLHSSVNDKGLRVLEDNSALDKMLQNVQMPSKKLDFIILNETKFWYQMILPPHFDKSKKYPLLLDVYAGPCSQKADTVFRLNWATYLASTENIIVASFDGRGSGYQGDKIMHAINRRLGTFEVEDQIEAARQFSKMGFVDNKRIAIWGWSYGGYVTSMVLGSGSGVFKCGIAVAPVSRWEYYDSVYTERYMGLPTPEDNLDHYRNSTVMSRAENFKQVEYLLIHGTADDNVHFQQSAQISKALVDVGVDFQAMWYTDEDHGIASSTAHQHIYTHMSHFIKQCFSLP
The experiment in a line: DPP-IV assay (H-Ala-Pro-pNA hydrolysis, absorbance). The series is classed as biochemical. Here is the method: A 500 mM stock solution was prepared with dimethylsulfoxide and stored at −20° C. Gly-Pro-AMC was purchased from Enzyme System Products (product no. AMC-39) and stored at −20° C. as a 10 mM stock solution in dimethylsulfoxide. Test compounds were dissolved to 10 mM in dimethylsulfoxide and this was used as a stock solution for DPP-IV titration assays. Athens Research and Technology, Inc prepared the purified human DPP-IV. The material was isolated from human prostasomes using the method of DeMeester et al., J. Immunol.
The average enzymatic activity from wells containing dimethylsulfoxide but lacking test compound was used as a control value for calculating percent inhibition. DPP-IV (20 ng/mL) was mixed in microtiter plates with test compounds, substrate and assay buffer to yield 100 μM H-Ala-Pro-pNA•HCl in 25 mM Tris, pH 7.5, 10 mM KCl, 140 mM NaCl. The intact peptide contains a p-nitrophenylanilide which, when hydrolyzed by DPP-IV, releases the absorbant p-nitrophenylaniline. […] The enzymatic activity was determined by estimating the best linear fit to the data. Values for enzymatic activity were taken directly from the linear fit determined by the software on the plate reader.
Data Analysis: The enzymatic activity was determined by estimating the best linear fit to the data. Data reduction was performed using the Microsoft Excel RoboSage.
Determination of Ki values: Ki values were calculated from IC50 values using equation 3 assuming a competitive model.

For series [3], the target named is T3, DPP-IV activity in serum (Canis lupus familiaris, UniProt A0A8I3Q2I8).
T3 construct: The substrate was mixed with 50 mM Tris, pH 7.8, in serum (20% final v/v); from tissue; host or cells: serum of beagle dogs dosed orally
T3 sequence (A0A8I3Q2I8 1-765): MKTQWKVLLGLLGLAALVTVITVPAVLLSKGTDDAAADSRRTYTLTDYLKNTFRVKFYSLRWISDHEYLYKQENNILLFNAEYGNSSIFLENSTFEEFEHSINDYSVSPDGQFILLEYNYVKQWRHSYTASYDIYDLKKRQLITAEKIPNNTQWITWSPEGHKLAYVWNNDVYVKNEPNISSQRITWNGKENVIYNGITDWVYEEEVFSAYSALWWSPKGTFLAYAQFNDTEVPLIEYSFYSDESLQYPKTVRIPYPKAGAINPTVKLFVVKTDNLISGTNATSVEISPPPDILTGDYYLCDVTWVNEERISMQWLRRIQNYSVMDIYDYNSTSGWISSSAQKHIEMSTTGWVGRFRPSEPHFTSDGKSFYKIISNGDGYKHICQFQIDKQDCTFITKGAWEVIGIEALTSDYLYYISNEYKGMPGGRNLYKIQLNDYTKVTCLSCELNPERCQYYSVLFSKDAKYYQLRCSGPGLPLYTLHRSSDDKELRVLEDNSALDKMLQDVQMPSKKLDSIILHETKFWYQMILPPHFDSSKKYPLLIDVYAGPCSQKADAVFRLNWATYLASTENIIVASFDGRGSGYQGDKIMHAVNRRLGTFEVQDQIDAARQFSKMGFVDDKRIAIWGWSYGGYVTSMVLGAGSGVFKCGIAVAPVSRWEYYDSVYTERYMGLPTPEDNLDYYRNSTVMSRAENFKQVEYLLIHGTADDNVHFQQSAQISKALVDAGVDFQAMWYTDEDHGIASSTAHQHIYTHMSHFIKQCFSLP
Description: DPP-IV activity in serum of dogs after oral dosing. Particulars: dog, read-out: inhibited DPP4 12 hours after oral dosing. The series is classed as in vivo.

A further series concerns dogs. The experiment in a line: Dose escalation studies in dogs, limiting gastrointestinal toxicity. The series is classed as in vivo. Here is the method: The dog is a common non-rodent species routinely used to satisfy regulatory requirements. The beagle was chosen to examine the safety of the compounds of the present invention because of the knowledge of this strain's general pathology and response to a wide variety of drugs. Dogs (Marshall Farms Inc., North Rose, N.Y., USA) from 9 to 12 months (5 to 12 kg) were dosed by oral gavage at 10 mL/kg/day with vehicle (10 mM acetic acid, pH 3.3) or test compound in vehicle. Each dose was followed by a flush of approximately 10 mL of water, once daily with 24–48 hours between each subsequent dose. If limiting gastrointestinal toxicity was not observed, the dose was increased 3-fold no sooner than approximately 24 hours after the preceding dose. Limiting GI toxicity includes diarrhea, loose or mucoid feces, blood in stool, and/or sloughing of the gut epithelium. Clinical observations were made at least three times daily during treatment (once prior to dosing, approximately one hour post dose, and once in conjunction with pm viability). DPP-IV activity in serum was measured using the fluorogenic substrate Gly-Pro-AMC (50 mM) according to the manufacturers specification (Enzyme System Products, Livermore Calif.). […] DPP-IV activity was determined by measuring fluorescence using a cytofluor spectrofluoremeter with the filters set at 360 nm excitation and 460 nm emission.

A further series can be described thus: physchem. Particulars: buffer, t1/2 at 37° C.
Setting [4] is: Table I, read-out: IC50 (nM) Human DPP-IV.
Setting [5] is: human DPP-IV, text b860, read-out: IC50 values.

T1 sequence (P14740 37-767 limits assumed): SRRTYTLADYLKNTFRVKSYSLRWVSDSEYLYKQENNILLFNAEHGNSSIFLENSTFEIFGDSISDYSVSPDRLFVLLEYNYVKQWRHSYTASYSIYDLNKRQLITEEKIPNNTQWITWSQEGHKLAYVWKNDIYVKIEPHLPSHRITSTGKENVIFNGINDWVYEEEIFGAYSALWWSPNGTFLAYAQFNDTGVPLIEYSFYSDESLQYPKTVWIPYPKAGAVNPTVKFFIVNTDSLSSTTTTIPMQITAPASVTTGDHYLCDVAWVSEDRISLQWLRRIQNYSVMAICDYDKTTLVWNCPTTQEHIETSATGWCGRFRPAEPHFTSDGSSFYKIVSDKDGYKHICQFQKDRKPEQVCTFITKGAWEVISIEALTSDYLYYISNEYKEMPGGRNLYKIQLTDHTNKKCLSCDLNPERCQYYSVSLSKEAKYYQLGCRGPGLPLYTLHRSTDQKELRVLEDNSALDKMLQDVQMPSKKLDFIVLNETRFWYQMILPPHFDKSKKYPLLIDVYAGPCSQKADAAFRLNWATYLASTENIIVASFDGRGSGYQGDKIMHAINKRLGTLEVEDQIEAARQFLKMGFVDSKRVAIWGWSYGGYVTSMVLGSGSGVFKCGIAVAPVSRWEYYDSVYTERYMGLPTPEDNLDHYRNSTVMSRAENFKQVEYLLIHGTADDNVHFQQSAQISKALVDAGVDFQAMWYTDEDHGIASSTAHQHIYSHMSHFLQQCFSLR
Description for physchem: as §1, §2

As for `COc1ccc(CS(=O)(=O)C(C)(C)[C@H](N)C(=O)N2C[C@@H](F)C[C@H]2C#N)cc1` [Example 9, (2S,4S)-1-{(2R)-2-Amino-3-[(4-methoxybenzyl)sulfonyl]-3-methylbutanoyl}-4-fluoropyrrolidine-2-carbonitrile hydrochloride], the “t1/2 at 37° C.” value in series [1] (37° C.) came to 1733 h.

The IC50 is the midpoint of a concentration-inhibition curve. Take `CC(C)[C@H](N)C(=O)N1C[C@@H](F)C[C@H]1C#N` [Comparison Example 1]: at DPP-IV activity in serum [2] (po), the inhibition at 1 mg/kg worked out at 32 ± 3%. Further, on DPP-IV activity in serum [2], the duration of action result is given as “poor level of duration”. The IC50 was 1.3 nM on human DPP-IV (setting [4]) and under 5.6 nM on human DPP-IV (setting [5]).

`CC(C)(C)[C@H](N)C(=O)N1C[C@@H](F)C[C@H]1C#N` [Comparison Example 5]: the inhibition at 1 mg/kg on DPP-IV activity in serum [2] (po) is 71 ± 13%. At DPP-IV activity in serum [3] (po), the inhibition at 0.2 mg/kg was 2%. Further, the concentration for half-maximal inhibition (IC50) on human DPP-IV (setting [4]) was determined as 3 nM. For the same compound, in the series on dogs (0.3 mg/kg oral gavage), the “gastrointestinal toxicity, dose escalation in dogs” value is reported as “loose/mucoid feces with traces of blood”.

Turning to `N#C[C@@H]1C[C@H](F)CN1C(=O)[C@@H](N)CCC(=O)O` [Comparison Example 2], on DPP-IV activity in serum [2] (po), the inhibition at 1 mg/kg amounted to 32 ± 3%. For the same compound, at DPP-IV activity in serum [2], the duration of action result was “poor level of duration”. Further, the half-inhibitory concentration (IC50) on human DPP-IV (setting [4]) was 3 nM; on human DPP-IV (setting [5]), under 5.6 nM.

For orientation: half-life means the time needed for the level to fall by half in the phase considered. Consider `N#C[C@@H]1C[C@H](F)CN1C(=O)[C@@H](N)C(c1ccc(F)cc1)c1ccc(F)cc1` [Example 2, (2S,4S)-1-[(2S)-2-Amino-3,3-bis(4-fluorophenyl)propanoyl]-4-fluoropyrrolidine-2-carbonitrile hydrochloride], for which, at DPP-IV activity in serum [2] (1 mg/kg oral gavage, male CD rats, serum, 6 hrs, vs vehicle), the inhibition at 1 mg/kg worked out at 68 ± 4%. Moreover, the inhibition at 0.5 mg/kg at DPP-IV activity in serum [3] (dogs, 0.5 mg/kg oral, 12 hours, serum) came out at 45%. The half-life in the series “physchem” was 266 h. In addition, the “gastrointestinal toxicity, dose escalation in dogs” value in the series on dogs (dog, in vivo) is “no adverse affects on gastrointestinal toxicity”.

Turning to `CC[C@H](C)[C@H](N)C(=O)N1C[C@@H](F)C[C@H]1C#N` [Comparison Example 3], the half-life was 47 h in series [1] (t1/2 at 23° C., ambient room temperature 23° C.) and 23 h in series [1] (t1/2 at 37° C. (calc.), calculated for 37° C. from value measured at 23° C.).

As to `N#C[C@@H]1CCCN1C(=O)[C@@H](N)C(c1ccc(F)cc1)c1ccc(F)cc1` [Comparison Example 6], on DPP-IV activity in serum [2] (Table 3, rats, 6 Hrs.), the “% DPP-IV Inhibition @ 6 Hrs. In Rats” value stood at 15 ± 1%.
